Results from ChEMBL document CHEMBL1150212, “Antitumor agents, 129. Tannins and related compounds as selective cytotoxic agents” (1992).

Experiments:
Assay type in all cases: functional
Conditions in all cases: read-out: ED50 (the source's name)
[1] = Cytotoxicity against human […] cells by tetrazolium salt-based colorimetric assay
TE-671 = assay: Cytotoxicity against human TE671 cells by tetrazolium salt-based colorimetric assay
HCT-8 = assay: Cytotoxicity against human HCT8 cells by tetrazolium salt-based colorimetric assay
KB = assay: Cytotoxicity against human KB cells by tetrazolium salt-based colorimetric assay
A549 = assay: Cytotoxicity against human A549 cells by tetrazolium salt-based colorimetric assay

| SMILES | EC50 [1] [µg/mL] | EC50 (TE-671) [µg/mL] | EC50 (HCT-8) [µg/mL] | EC50 (KB) [µg/mL] | EC50 (A549) [µg/mL] |
| --- | --- | --- | --- | --- | --- |
| O=C(O[C@@H]1O[C@@H]2COC(=O)c3cc(O)c(O)c(O)c3-c3c(cc(O)c(O)c3O)C(=O)O[C@H]2[C@H](O)[C@H]1O)c1cc(O)c(O)c(O)c1 [STRICTININ] | 4.86 | > 10 | > 10 | > 10 | > 10 |
| O=C(O[C@@H]1O[C@@H]2COC(=O)c3cc(O)c(O)c(O)c3-c3c(cc(O)c(O)c3O)C(=O)O[C@H]2[C@@H]2OC(=O)c3cc(O)c(O)c(O)c3-c3c(cc(O)c(O)c3O)C(=O)O[C@@H]12)c1cc(O)c(O)c(O)c1 | 0.21 | > 10 | > 10 | > 10 | > 10 |
| O=C(O)C[C@H]1C(=O)O[C@H]2[C@H](OC(=O)c3cc(O)c(O)c(O)c3)[C@@H](OC(=O)c3cc(O)c(O)c4c3[C@H]1[C@H](O)C(=O)O4)[C@H](OC(=O)c1cc(O)c(O)c(O)c1)O[C@@H]2COC(=O)c1cc(O)c(O)c(O)c1 [CHEBULINIC ACID] | > 10 | > 10 | > 10 | > 10 | > 10 |
| O=C(O)C1=C[C@@H](OC(=O)c2cc(O)c(O)c(O)c2)[C@@H](O)[C@H](OC(=O)c2cc(O)c(O)c(O)c2)C1 | > 10 | > 10 | > 10 | > 10 | > 10 |
| O=C(O[C@@H]1O[C@@H]2COC(=O)c3cc(O)c(O)c(O)c3-c3c(cc(O)c(O)c3O)C(=O)O[C@@H]3[C@H]1OC(=O)c1cc(O)c(O)c4c1C1C(O)(O4)[C@]4(O)C[C@@]5(C(=O)O[C@H]6C(O)CO[C@@]65O)[C@]1(CC4=O)C(=O)O[C@@H]32)c1cc(O)c(O)c(O)c1 (stereo not given in full) [ELAEOCARPUSIN] | 2.62 | > 10 | > 10 | > 10 | > 10 |
| O=C1O[C@H]2[C@@H]3OC(=O)c4cc(Oc5c(C(=O)O)cc(O)c(O)c5O)c(O)c(O)c4-c4c(cc(O)c(O)c4O)C(=O)OC[C@H]2O[C@@H](OC(=O)c2cc(O)c(O)c(O)c2)[C@@H]3OC(=O)c2cc(O)c(O)c3c2[C@@H]2C1=CC(=O)[C@](O)(O3)C2(O)O [MALLOTUSINIC ACID] | > 10 | > 10 | > 10 | > 10 | > 10 |
| O=C(OC[C@H]1O[C@@H](OC(=O)c2cc(O)c(O)c(O)c2)[C@H](O)[C@@H](O)[C@@H]1O)c1cc(O)c(O)c(O)c1 | > 10 | > 10 | > 10 | > 10 | > 10 |
| O=C(OC[C@H]1O[C@@H](OC(=O)c2cc(O)c(O)c(O)c2)[C@H](OC(=O)c2cc(O)c(O)c(O)c2)[C@@H](OC(=O)c2cc(O)c(O)c(O)c2)[C@@H]1O)c1cc(O)c(O)c(O)c1 | > 10 | > 10 | > 10 | > 10 | > 10 |
| O=C(O[C@@H]1O[C@@H]2COC(=O)c3cc(O)c(O)c(O)c3-c3c(cc(O)c(O)c3O)C(=O)O[C@H]([C@H]1OC(=O)c1cc(O)c(O)c(O)c1)[C@@H]2OC(=O)c1cc(O)c(O)c(O)c1)c1cc(O)c(O)c(O)c1 [PUNICAFOLIN] | > 10 | > 10 | > 10 | > 10 | > 10 |
| O=C(OC[C@H]1O[C@@H](OC(=O)c2cc(O)c(O)c(O)c2)[C@H](OC(=O)c2cc(O)c(O)c(O)c2)[C@@H](OC(=O)c2cc(O)c(O)c(O)c2)[C@@H]1OC(=O)c1cc(O)c(O)c(O)c1)c1cc(O)c(O)c(O)c1 [PENTAGALLOYL GLUCOSE] | 5.01 | > 10 | > 10 | > 10 | > 10 |
| O=C1OC[C@H]2OC(=O)c3cc(O)c(O)c(O)c3-c3c(O)c(O)c(O)c4c3C(=O)O[C@H]([C@@H]3OC(=O)c5c-4c(O)c(O)c(O)c5[C@@H]3c3c(O)cc(O)c4c3O[C@H](c3ccc(O)c(O)c3)[C@@H](O)C4)[C@H]2OC(=O)c2cc(O)c(O)c(O)c2-c2c1cc(O)c(O)c2O [ACUTISSIMIN A] | 0.61 | > 10 | > 10 | > 10 | > 10 |
| O=C1OC[C@H]2O[C@@H](O)[C@H](O)[C@@H](O)[C@@H]2OC(=O)c2cc(O)c(O)c(O)c2-c2c(O)c(O)c3oc(=O)c4c(c(O)c(O)c5oc(=O)c2c3c54)-c2c1cc(O)c(O)c2O [PUNICALIN] | > 10 | > 10 | > 10 | > 10 | > 10 |
| O=C1O[C@H]2[C@@H]3OC(=O)c4cc(O)c(O)c(O)c4-c4c(cc(O)c(O)c4O)C(=O)OC[C@H]2O[C@@H](OC(=O)c2cc(O)c(O)c(O)c2)[C@@H]3OC(=O)c2cc(O)c(O)c3c2[C@@H]2C1=CC(=O)[C@](O)(O3)C2(O)O [GERANIIN] | 0.35 | > 10 | > 10 | > 10 | > 10 |
| O=C(O[C@@H]1[C@@H](c2c(O)cc(O)c3c2O[C@H](c2ccc(O)c(O)c2)[C@H](OC(=O)c2cc(O)c(O)c(O)c2)C3)c2c(O)cc(O)c([C@H]3c4c(O)cc(O)cc4O[C@H](c4ccc(O)c(O)c4)[C@@H]3OC(=O)c3cc(O)c(O)c(O)c3)c2O[C@@H]1c1ccc(O)c(O)c1)c1cc(O)c(O)c(O)c1 | 3.05 | > 10 | > 10 | > 10 | > 10 |
| O=C(O[C@@H]1O[C@H](CO)[C@@H](O)[C@H](O)[C@H]1O)c1cc(O)c(O)c(O)c1 | > 10 | > 10 | > 10 | > 10 | > 10 |
| O=C1OC[C@H]2OC(=O)c3cc(O)c(O)c(O)c3-c3c(O)c(O)c(O)c4c3C(=O)O[C@H]([C@H]3OC(=O)c5c-4c(O)c(O)c(O)c5[C@@H]3C3(O)OC[C@H](O)[C@@H](O)[C@H]3O)[C@@H]2OC(=O)c2cc(O)c(O)c(O)c2-c2c1cc(O)c(O)c2O (stereo not given in full) [GRANDININ] | 0.1 | > 10 | > 10 | > 10 | > 10 |
| O=C1OC[C@H]2OC(O)[C@@H]3OC(=O)c4cc(O)c(O)c(O)c4-c4c(cc(O)c(O)c4O)C(=O)O[C@H]3[C@@H]2OC(=O)c2cc(O)c(O)c(O)c2-c2c1cc(O)c(O)c2O (stereo not given in full) [PEDUNCULAGIN] | 2.74 | > 10 | > 10 | > 10 | > 10 |
| O=C(O)C1=C[C@@H](O)[C@@H](O)[C@H](OC(=O)c2cc(O)c(O)c(OC(=O)c3cc(O)c(O)c(O)c3)c2)C1 | > 10 | > 10 | > 10 | > 10 | > 10 |
| O=C(O[C@H]1[C@H](O)C[C@](OC(=O)c2cc(O)c(O)c(O)c2)(C(=O)O)C[C@H]1OC(=O)c1cc(O)c(O)c(O)c1)c1cc(O)c(O)c(O)c1 | > 10 | > 10 | > 10 | > 10 | > 10 |
| O=C1OC[C@H]2OC(=O)c3cc(O)c(O)c(O)c3-c3c(O)c(O)c(O)c4c3C(=O)O[C@H]([C@H]3OC(=O)c5c-4c(O)c(O)c(O)c5[C@H]3O)[C@@H]2OC(=O)c2cc(O)c(O)c(O)c2-c2c1cc(O)c(O)c2O [CASTALAGIN] | 0.79 | > 10 | > 10 | > 10 | > 10 |
| O=C(O[C@@H]1[C@@H](c2c(O)cc(O)c3c2O[C@H](c2ccc(O)c(O)c2)[C@H](OC(=O)c2cc(O)c(O)c(O)c2)C3)c2c(O)cc(O)cc2O[C@@H]1c1ccc(O)c(O)c1)c1cc(O)c(O)c(O)c1 | 3.45 | > 10 | > 10 | > 10 | > 10 |
| O=C(O[C@@H]1Cc2c(O)cc(O)cc2O[C@@H]1c1ccc(O)c(O)c1)c1cc(O)c(O)c(O)c1 [EPICATECHIN GALLATE] | 0.55 | > 10 | > 10 | > 10 | > 10 |
| O=C(O[C@@H]1O[C@@H]2COC(=O)c3cc(O)c(O)c(O)c3-c3c(cc(O)c(O)c3O)C(=O)O[C@H]2[C@@H]2OC(=O)c3cc(O)c(O)c(O)c3-c3c(cc(O)c(O)c3O)C(=O)O[C@@H]12)c1cc(O)c(O)c(Oc2c(O)c(O)c(O)c3c2C(=O)O[C@H]2[C@@H]4OC(=O)c5cc(O)c(O)c(O)c5-c5c(cc(O)c(O)c5O)C(=O)O[C@H]4[C@@H](OC(=O)c4cc(O)c(O)c(Oc5c(O)c(O)c(O)c6c5C(=O)O[C@H]5[C@@H]7OC(=O)c8cc(O)c(O)c(O)c8-c8c(cc(O)c(O)c8O)C(=O)O[C@H]7[C@H](OC(=O)c7cc(O)c(O)c(Oc8c(O)c(O)c(O)c9c8C(=O)O[C@H]8[C@@H]%10OC(=O)c%11cc(O)c(O)c(O)c%11-c%11c(cc(O)c(O)c%11O)C(=O)O[C@H]%10[C@@H](OC(=O)c%10cc(O)c(O)c(O)c%10)O[C@@H]8COC(=O)c8cc(O)c(O)c(O)c8-9)c7)O[C@@H]5COC(=O)c5cc(O)c(O)c(O)c5-6)c4)O[C@@H]2COC(=O)c2cc(O)c(O)c(O)c2-3)c1 | 0.5 | > 10 | > 10 | > 10 | > 10 |
| CC1(C)CC[C@]2(C(=O)O)CC[C@]3(C)C(=CC[C@@H]4[C@@]5(C)C[C@@H](O)[C@@H]6OC(=O)c7cc(O)c(O)c(O)c7-c7c(cc(O)c(O)c7O)C(=O)OC[C@@]6(CO)[C@@H]5CC[C@]43C)[C@@H]2C1 [CASTANOPSINIIN A] | > 10 | > 10 | > 10 | > 10 | > 10 |
| CC1(C)CC[C@]2(C(=O)O[C@@H]3O[C@H](CO)[C@@H](O)[C@H](O)[C@H]3O)CC[C@]3(C)C(=CC[C@@H]4[C@@]5(C)C[C@@H](O)[C@@H]6OC(=O)c7cc(O)c(O)c(O)c7-c7c(cc(O)c(O)c7O)C(=O)OC[C@@]6(CO)[C@@H]5CC[C@]43C)[C@@H]2C1 [CASTANOPSININ A] | > 10 | > 10 | > 10 | > 10 | > 10 |
